Laboratory results: US7407948B2, “Photosensitisers and their uses” (priority 2007, dated 2008)
Read-outs that look alike come from different tables or passages of the source.

What was measured:
S. aureus = experiment: Photoinactivation of bacteria by phenoselenazinium derivatives (S. aureus); format: cell-based; settings: 10 μM photosensitiser, 30 min 37° C., 665 nm laser, 3 J/cm^2 (10 mW/cm^2)
Experimental: (§1) 1 mM stock solutions of the photosensitisers were made up by solubilising the photosensitiser in dimethyl sulfoxide.
(§2) Bacteria (E. coli, S. aureus) and yeast (C. albicans) cells were grown at 37° C. until the cells reached the logarithmic growth phase. Bacterial cells were grown in nutrient media, yeast cells were grown in Sabouraud media (obtainable via Millipore Limited, Watford, England).
(§3) Following the incubation, the log phase cells were washed twice in 0.1 M pH7.0 potassium phosphate buffer. The cells were then resuspended in buffer to give 3.5×10^8 CFU/ml for E. coli and S. aureus, or 1.0×10^7 CFU/ml for C. albicans.
(§4) The cells were incubated for 30 min at 37° C. with 10 μM photosensitiser. Following the incubation 2 mL of the cell suspension was removed into a 30 mm sterile Petri dish. The cell containing dish was then illuminated with a 665 nm Ceramoptec diode laser (trade mark of Ceramoptec GmBH, Germany and obtainable from Biolitec, Germany), at a light dose of 3 J/cm^2 (10 mW/cm^2).
(§5) Cells of the illuminated and non illuminated cultures were serially diluted and plated on either: nutrient agar (E. coli and S. aureus) or sabouraud agar (C. albicans). The plates were incubated for 24 h (E. coli and C. albicans) or 48 h (S. aureus). The colonies on the plates were counted as a measure of cell survival.

E. coli = experiment: Photoinactivation of bacteria by phenoselenazinium derivatives (E. coli); format: cell-based; settings: 10 μM photosensitiser, 30 min 37° C., 665 nm laser, 3 J/cm^2 (10 mW/cm^2)
Experimental: as §1, §2, §3, §4, §5

C. albicans = experiment: Photoinactivation of yeast by phenoselenazinium derivatives (C. albicans); format: cell-based; settings: 10 μM photosensitiser, 30 min 37° C., 665 nm laser, 3 J/cm^2 (10 mW/cm^2)
Experimental: as §1, §2, §3, §4, §5

[1] = Singlet oxygen yield relative to Methylene Blue; format: physicochemical; settings: in methanol, relative to MB
[2] = Partition coefficient log P; format: physicochemical; settings: 2-octanol/0.1 M aqueous potassium phosphate at pH 7
Source text: Partition coefficient (2-octanol/0.1 M aqueous potassium phosphate at pH 7): log P=>2.

[3] = tested on: subcutaneous CaNT tumours; experiment: Anti-tumour efficacy in vivo (PDT, tumour necrosis); design: species or system CBA/gy mice; settings: 60 J/cm^2 660±15 nm, 72 h after illumination
Experimental: (§6) Tumour destruction was assessed in CBA/gy mice bearing subcutaneous CaNT tumours. The photosensitiser was administered intravenously at doses up to 16.7 μmol/kg. At various times after photosensitiser administration, the tumour was illuminated superficially with 60 J/cm^2, 50 mW/cm^2 light from a Paterson lamp using a 660±15 nm filter. Drug-light intervals ranged from 0 h (in practice, 1-2 minutes) up to 96 h. 72 h after illumination a cross sectional slice was removed from the centre of the tumour parallel to the incident light, an image of this was captured and the macroscopic necrotic area quantified using image analysis software. Necrosis was expressed as % area of the total tumour slice. % tumour necrosis in control tumours was generally <10%.
(§7) The phenoselenazinium compounds were dissolved and administered in a composition comprising 25% Solutol, 10% ethanol, 65% saline vehicle.

[4] = tested on: normal tissues surrounding the tumour (usually kidney); format: in vivo; settings: arbitrary score 0-3, i.v. dose 1.67 μmol/Kg
Experimental: as §6
An arbitrary score 0-3 of the severity of damage to normal tissues surrounding the tumour (usually kidney) was also recorded. 0=no detectable damage; 1=minimal damage to one organ; 2=damage to more than one organ; 3=death
as §7

[5] = i.v. dose 1.67 μmol/Kg, drug to light interval 0 h
[6] = i.v. dose 1.67 μmol/Kg, drug to light interval 1 h
[7] = i.v. dose 8.4 μmol/Kg, drug to light interval 1 h

| Structure (SMILES) | Log change in CFU/mL (S. aureus) | Log change in CFU/mL (E. coli) | Log change in CFU/mL (C. albicans) | Singlet oxygen yield (relative to Methylene Blue) [1] | logP [2] | % tumour necrosis [3, 5] [%] | % tumour necrosis ([3]; i.v. dose 4.18 μmol/Kg, drug to light interval 0 h) [%] | % tumour necrosis ([3]; i.v. dose 6.26 μmol/Kg, drug to light interval 0 h) [%] | % tumour necrosis ([3]; i.v. dose 8.34 μmol/Kg, drug to light interval 0 h) [%] | % tumour necrosis [3, 6] [%] | Normal tissue damage ([4]; drug to light interval 0 h) | Normal tissue damage ([4]; drug to light interval 1 h) | % tumour necrosis ([3]; i.v. dose 8.4 μmol/Kg, drug to light interval 0 h) [%] | % tumour necrosis [3, 7] [%] | % tumour necrosis ([3]; i.v. dose 16.7 μmol/Kg, drug to light interval 0 h) [%] | % tumour necrosis ([3]; i.v. dose 0.84 μmol/Kg, drug to light interval 0 h) [%] | % tumour necrosis ([3]; i.v. dose 0.84 μmol/Kg, drug to light interval 1 h) [%] |
| --- | --- | --- | --- | --- | --- | --- | --- | --- | --- | --- | --- | --- | --- | --- | --- | --- | --- |
| CCCCCN(CCCCC)c1ccc2nc3ccc(N(CCCCC)CCCCC)cc3[se+]c2c1 [Compound 4, 3,7-Bis-(N,N-dipentylamino)phenoselenazin-5-ylium iodide] | 0.95 (0.73) log CFU/mL | 3.66 (2.23) log CFU/mL | 0.17 (0.02) log CFU/mL | 1.4 | > 2 | 10 | 45 | 80 | 80 | – | – | – | – | – | – | – | – |
| CCCCN(CCCC)c1ccc2nc3ccc(N(CCC)CCC)cc3[se+]c2c1 [Compound 6, 3-N,N-dibutylamino-7-N,N-dipropylamino-phenoselenazin-5-ylium iodide] | 2.66 (2.26) log CFU/mL | 6.54 (0.00) log CFU/mL | 6.12 (0.82) log CFU/mL | 1.1 | > 2 | 75 | – | – | – | 15 | – | – | – | – | – | – | – |
| CCN(CC)c1ccc2nc3ccc(N(CC)CC)cc3[se+]c2c1 [Compound 3, 3,7-Bis-(N,N-diethylamino)phenoselenazin-5-ylium iodide] | 2.72 (0.87) log CFU/mL | 3.78 (0.28) log CFU/mL | 0.16 (0.22) log CFU/mL | 1.5 | 1.5 | 0 | – | – | – | 0 | – | – | – | – | – | – | – |
| CN(C)c1ccc2nc3ccc(N(C)C)cc3[se+]c2c1.[I-] [Compound A, 3,7-N,N-dimethylamino-phenoselenazin-5-ylium iodide, reference compound] | 1.74 (0.41) log CFU/mL | 3.33 (0.01) log CFU/mL | 0.19 (0.06) log CFU/mL | – | – | 0 | – | – | – | 0 | 0 | 0 | – | – | – | – | – |
| CCCN(CCC)c1ccc2nc3ccc(N(CCC)CCC)cc3[se+]c2c1 [Compound 2, 3,7-Bis-(N,N-dipropylamino)phenoselenazin-5-ylium iodide] | 1.70 (0.48) log CFU/mL | 3.16 (0.03) log CFU/mL | 0.35 (0.42) log CFU/mL | 1.1 | > 2 | 55 | – | – | – | – | – | – | 87 | 17 | 100 | – | – |
| CCCCCCN(CCCCCC)c1ccc2nc3ccc(N(CCCCCC)CCCCCC)cc3[se+]c2c1 [Compound 5, 3,7-Bis-(N,N-dihexylamino)phenoselenazin-5-ylium iodide] | 0.18 (0.12) log CFU/mL | 0.02 (0.13) log CFU/mL | −0.03 (0.03) log CFU/mL | 1.1 | > 2 | 0 | – | – | – | – | – | – | – | 30 | – | – | – |
| CCCCN(CCCC)c1ccc2nc3ccc(N(CCCC)CCCC)cc3[se+]c2c1 [Compound 1, 3,7-Bis-(N,N-dibutylamino)phenoselenazin-5-ylium bromide] | 0.21 (0.01) log CFU/mL | 5.48 (0.34) log CFU/mL | 0.00 (0.05) log CFU/mL | 0.9 | > 2 | 88 | – | – | – | 88 | – | – | – | – | – | 93 | 40 |
